# From US8470876B2, “Lipid composition for the treatment of skin problems in companion animals” (priority 2009, dated 2013)
# Legend:
# Type in all cases: in vivo
# atopic and pruritic skin = experiment: Case: Parson Russell terrier with atopic and pruritic skin; conditions: past treatment history of the same dog
# Description: An eight-year-old Parson Russell terrier had suffered for a long time from atopic and pruritic skin. The dog had been treated with cortisone and with a variety of different fatty acid supplements containing GLA and fish oil fatty acids (EPA and DHA). […] Constant itching tired the dog and it became phlegmatic. The dog was put on daily dosing of the nutritional oil blend as prepared in example 1 and a clear change in the dogs skin condition and behaviour occurred in a matter of weeks. The rashes and itching was reduced by 95%.
# [1] = tested on: symmetrical lupoid onychodystrophy (SLO); experiment: Case: schapendoes dog with symmetrical lupoid onychodystrophy (SLO); conditions: initial treatment before supplementation
# Protocol: A four year old, female schapendoes dog was diagnosed with symmetrical lupoid onychodystrophy (SLO). […] Supplementation with the nutritional oil blend as prepared in example 1 at 4 ml/10 kg body weight was started immediately after the secondary infections had cleared.
# rhinarium = experiment: Case: French Bulldog with dry, rough and chapped rhinarium; conditions: past treatment history of the same dog
# Description: In this breed of dogs the rhinarium is typically black, but for this individual the black colour of the rhinarium had faded and was grey. […] Topical treatment with oil or ointments provided temporary smoothing effect and a change in colour. […] The rhinarium was no longer rough and chapped, but it was supple and had obtained a characteristic black colour. Subsequently the positive effect on the rhinarium condition was produced with the oil blend in dogs from different breeds.
# skin and claws = experiment: Case: Bullterrier with skin problems and splitting and breaking claws; conditions: past treatment history of the same dog
# Description: A three year old, female Bullterrier Dog had suffered from various skin problems since it was a puppy. The skin problems were characterized by red spots in the stomach and hairless spots in the head and in the hind limbs. In addition to the skin problems the dog suffered from splitting and breaking claws. The claws kept constantly breaking and by the age of three the claws had never grown long enough to be clipped. […] The skin was cleared from the red spots and the hairless areas started to grow hair. The positive effects on the skin health remained over several months as the supplementation was continued. […] Three months after the supplementation with the oil blend had begun, the dog's claws needed to be clipped. This was the first time in this dog's life.
molecule,measurement,setting,value
C[C@]12CCC(=O)C=C1CC[C@@H]1[C@@H]2C(=O)C[C@@]2(C)[C@H]1CC[C@]2(O)C(=O)CO [cortisone],effect of earlier treatments on atopic and pruritic skin,atopic and pruritic skin,provided help only for some weeks
CC1=C(C(=O)O)N2C(=O)[C@@H](NC(=O)[C@H](N)c3ccccc3)[C@H]2SC1 [cephalexin],secondary bacterial infections in affected claws,[1],total resolution of the bacterial infection
vitamin A,appearance of the rhinarium with earlier nutritional supplements,rhinarium,without any appreciable effect
O=C(O)CCCC[C@@H]1SC[C@@H]2NC(=O)N[C@@H]21 [biotin],claws with earlier treatment,skin and claws,without any appreciable improvement
same,appearance of the rhinarium with earlier nutritional supplements,rhinarium,without any appreciable effect
